Series [1] is described as follows: In vitro metabolic stability in mouse liver microsomes. The following applies: tissue homogenate, pH 7.4. The method, then: 1. Aqueous kinetic solubility. […]
3. In vitro mouse microsomial stability. […]
microsomes (Sekisui Xenotech, LCC), 0.1M Tris-HCl buffer (pH 7.4), and 10% DMSO. The final […]
After pre-incubation, the cofactors (NADPH, G6P, G6PDH, MgCl2 pre-dissolved in 0.1M Tris-HCl) were added to the incubation mixture and the incubation was continued at 37 °C for 1h. At each time point (0, 5, 15, 30, 60 min), 30µL of incubation mixture was diluted with 200 µL cold acetonitile spiked with 200 nM of warfarin as internal standard, followed by centrifugation at 3500 g for 30 min. The supernatant was further diluted with H2O (1:1) for analysis.
An aliquot of 200 µl of the supernatant was removed, and the concentration of the test compound was […]
quantified by LC-MS/MS. The percentage of the test compound remaining at each time point relative […]
to t=0 was calculated. The half-lives (t½) were determined by a one-phase decay equation using a […]
non-linear regression of compound concentration vs time.
In general terms: Liver microsomes are a subcellular fraction often used to study metabolism.

The nature of series [2]: Aqueous kinetic solubility in PBS pH 7.4. Type of series: physicochemical. The following applies: phosphate buffered saline (PBS); aqueous kinetic solubility from 10 mM DMSO solution in PBS pH 7.4; target concentration 250 μM (final DMSO 2.5%). The procedure:
1. Aqueous kinetic solubility.
30 µL aliquots of 10 mM DMSO stock solution of the test compound were incubated in Phosphate
Buffered Saline (PBS) at pH 7.4 at 25°C for 24h. After centrifugation the dissolved compound in the
supernatant was quantified by LC-MS/MS.
Aqueous kinetic solubility was determined by UV quantification at
215 nm. […]

The target of a further series is T1, NKCC1 (Homo sapiens, UniProt P55011).
T1 construct: host or cells: HEK293
T1 sequence (P55011 1-1212): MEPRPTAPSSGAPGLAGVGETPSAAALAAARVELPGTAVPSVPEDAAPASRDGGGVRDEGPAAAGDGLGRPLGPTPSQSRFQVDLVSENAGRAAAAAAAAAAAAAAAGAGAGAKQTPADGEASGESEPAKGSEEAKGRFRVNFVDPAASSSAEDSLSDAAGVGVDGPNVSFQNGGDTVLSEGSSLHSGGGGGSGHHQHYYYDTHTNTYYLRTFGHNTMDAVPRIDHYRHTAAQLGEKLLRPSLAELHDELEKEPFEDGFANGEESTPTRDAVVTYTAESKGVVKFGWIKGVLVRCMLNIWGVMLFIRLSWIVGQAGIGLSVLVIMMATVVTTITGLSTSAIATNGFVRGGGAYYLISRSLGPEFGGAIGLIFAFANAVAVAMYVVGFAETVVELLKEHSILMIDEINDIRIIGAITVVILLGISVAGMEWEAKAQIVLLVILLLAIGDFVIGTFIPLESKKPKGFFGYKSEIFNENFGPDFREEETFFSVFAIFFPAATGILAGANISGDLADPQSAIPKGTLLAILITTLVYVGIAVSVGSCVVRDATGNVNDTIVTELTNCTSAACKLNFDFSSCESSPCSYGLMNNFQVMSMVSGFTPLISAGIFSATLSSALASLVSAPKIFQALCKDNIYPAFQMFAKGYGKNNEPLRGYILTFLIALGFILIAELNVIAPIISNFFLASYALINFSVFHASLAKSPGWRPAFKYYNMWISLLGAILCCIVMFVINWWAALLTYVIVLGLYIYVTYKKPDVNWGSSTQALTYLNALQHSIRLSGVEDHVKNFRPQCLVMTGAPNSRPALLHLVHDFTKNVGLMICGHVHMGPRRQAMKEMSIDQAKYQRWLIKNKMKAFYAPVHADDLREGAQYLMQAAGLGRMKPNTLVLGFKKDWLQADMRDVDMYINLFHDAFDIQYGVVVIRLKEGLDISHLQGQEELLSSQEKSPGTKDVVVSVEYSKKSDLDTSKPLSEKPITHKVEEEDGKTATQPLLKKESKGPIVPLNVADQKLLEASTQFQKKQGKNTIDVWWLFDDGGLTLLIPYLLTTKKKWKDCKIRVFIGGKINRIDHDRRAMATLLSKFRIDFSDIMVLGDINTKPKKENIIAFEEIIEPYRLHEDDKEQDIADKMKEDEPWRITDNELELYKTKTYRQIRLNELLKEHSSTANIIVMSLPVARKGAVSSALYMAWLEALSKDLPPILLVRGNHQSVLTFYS
As to the kind of experiment: Cl- influx assay in NKCC1-transfected HEK293 cells. It counts as cell-based. The following applies: for inhibition at 10 µM: HEK293, read-out: Inhibition 10 μM Cl- influx (%); for inhibition at 100 µM: HEK293, read-out: Inhibition 100 μM Cl- influx (%); for Inhibition 10 μM Cl- influx (%) / Inhibition 100 μM Cl- influx (%): NKCC1-transfected HEK293 cells. The procedure: HEK293 cells were cultured in Dulbecco’s modified Eagle’s medium (DMEM) supplemented with 10% fetal bovine serum, 1% L-glutamine, 100 U/mL penicillin, and 100 μg/mL streptomycin and maintained at 37 °C in a 5% CO2 humidified atmosphere. To assess NKCC1 and NKCC2 activity (Cl^– influx assay), 3 million HEK cells were plated in a 10 cm cell-culture dish and transfected with a transfection mixture comprising 5 mL of DMEM, 4 mL of Opti-MEM, 8 μg of DNA plasmid coding for NKCC1 (PRK-NKCC1 obtained from Medical Research Council and the University of Dundee), NKCC2 (OriGene plasmid #RC216145) subcloned in PRK5 plasmid, or mock control (empty vector), together with 8 μg of a plasmid coding for the Cl^–-sensitive variant of the membrane-targeted fluorescent protein YFP, mbYFPQS (Addgene plasmid #80742),[53] and 32 μL of Lipofectamin 2000. To assess KCC2 activity (Tl influx assay), cells were transfected with 8 μg of KCC2[54] subcloned in the PRK5 plasmid or mock control (empty vector) and 16 μL of Lipofectamin 2000. After 4 h, the cells were collected and plated in 96-well black-walled, clear-bottomed plates at a density of 2.5 × 10^4. After 48 h, cells were used for the Cl^– or Tl influx assays. All reagents were purchased from Life Technologies, unless otherwise specified.
Transfected cells were treated with 10 μM or 100 μM bumetanide (as positive controls), DMSO (as the negative control), or with each of our compounds in 100 μL/well of a Cl^–-free hypotonic solution (67.5 mM Na^+ gluconate, 2.5 mM K^+ gluconate, 15 mM HEPES pH 7.4, 50 mM glucose, 1 mM Na2HPO4, 1 mM NaH2PO4, 1 mM MgSO4, and 1 mM CaSO4). After 30 min of incubation, plates were loaded into a Victor 3V (PerkinElmer) multiplate reader equipped with an automatic liquid injector system, and fluorescence of Cl^–-sensitive mbYFPQS was recorded with excitation at 485 nm and emission at 535 nm. For each well, fluorescence was first recorded for 20 s of the baseline and for 60 s after delivery of a NaCl concentrated solution (74 mM final concentration in the assay well). Fluorescence of Cl^–-sensitive mbYFPQS is inversely correlated to the intracellular Cl^– concentration;[53] therefore, chloride influx into the cells determined a decrease in mbYFPQS fluorescence. To represent the fluorescent traces in time, we normalized the fluorescence value for each time point to the average of the fluorescence value of the first 20 s of the baseline (ΔF/F0). To quantify the average effects as represented by the bar plots, we expressed the decrease in fluorescence upon NaCl application as the average of the last 10 s of ΔF/F0 normalized traces. Moreover, for each experiment, to account for the contribution of Cl^– changes that were dependent on transporters/exchangers other than NKCC1 or NKCC2, we subtracted the value of the last 10 s of ΔF/F0 normalized traces obtained from mock-transfected cells (either control or treated) from the respective ΔF/F0 value obtained from the cells transfected with NKCC1 or NKCC2. We then presented in the figures all the data as a percentage of the fluorescence decrease versus the value of the control DMSO.

≈ marks a conversion by molar mass, not a printed value. Entries after “also recorded” stand apart in the source; their conditions may differ. Some results are limits rather than exact numbers.

For orientation: half-life means the time in which the quantity being followed falls by half. Broadly, the solubility is the dissolved amount per volume that the medium holds. As a reminder, the inhibition is the drop in the measured response relative to a control, in per cent. On to `CCCCCCNc1ccc([N+](=O)[O-])cc1S(=O)(=O)NC` [Compound 3, 2-(Hexylamino)-N-methyl-5-nitro-benzenesulfonamide], for which the half-life at 5 μM in series [1] was less than 5 min. In series [2], this compound showed a solubility at 24 h of 1 µM (≈ 0.315 µg/mL). Moreover, on NKCC1, the inhibition at 10 µM stood at 6.4 ± 3.4% and the inhibition at 100 µM worked out at 29.4 ± 2.8%.
Taken in the same sequence, the figures for `CNS(=O)(=O)c1cc([N+](=O)[O-])ccc1NCCC(C)(C)C` [Compound 4, 2-(3,3-Dimethylbutylamino)-N-methyl-5-nitro-benzenesulfonamide] were 6 min, 3 µM (≈ 0.946 µg/mL), 17.7 ± 3.9% and 28.7 ± 4.4%.
In series [1], `CCCCNc1ccc([N+](=O)[O-])cc1S(N)(=O)=O` [Compound 5, 2-(Butylamino)-5-nitro-benzenesulfonamide] returned a half-life at 5 μM of 6 min. In series [2], this compound gave a solubility at 24 h of 85 µM (≈ 23.2 µg/mL). Besides, on NKCC1, the “Inhibition 10 μM Cl- influx (%)” value is “Inactive” and the inhibition at 100 µM came out at 4.7 ± 13.3%.
Take `CCCCCCNc1ccc([N+](=O)[O-])cc1S(N)(=O)=O` [Compound 6, 2-(Hexylamino)-5-nitro-benzenesulfonamide]: the half-life at 5 μM in series [1] is less than 5 min. Further, in series [2], the solubility at 24 h was 6 µM (≈ 1.81 µg/mL). For the same compound, at NKCC1, the “Inhibition 10 μM Cl- influx (%)” value was “no inhibitory activity; also recorded: Inactive” and the inhibition at 100 µM came out at 3.8 ± 5.6%.
As for `CC(C)(C)CCNc1ccc([N+](=O)[O-])cc1S(N)(=O)=O` [Compound 8, 2-(3,3-Dimethylbutylamino)-5-nitro-benzenesulfonamide], on NKCC1, the “Inhibition 10 μM Cl- influx (%)” value is “Inactive” and the inhibition at 100 µM is 14.5 ± 10.6%.
The like results for `CCCCNc1ccc([N+](=O)[O-])cc1S(=O)(=O)NC` [Compound 9, 2-(Butylamino)-N-methyl-5-nitro-benzenesulfonamide] were, in that order, “Inactive” and 13.3 ± 11.4%.
For the compound `CCCCCCCCNc1ccc([N+](=O)[O-])cc1S(=O)(=O)NC` [Compound 10, N-Methyl-5-nitro-2-(octylamino)benzenesulfonamide], on NKCC1, the “Inhibition 10 μM Cl- influx (%)” value was “Inactive” and the “Inhibition 100 μM Cl- influx (%)” value is listed as “Inactive”.
For `CCCCNc1ccc([N+](=O)[O-])cc1S(=O)(=O)N(C)C` [Compound 11, 2-(Butylamino)-N,N-dimethyl-5-nitro-benzenesulfonamide], on NKCC1, the “Inhibition 10 μM Cl- influx (%)” value is reported as “Inactive” and the inhibition at 100 µM amounted to 15.2 ± 9.6%.
Regarding `CCCCCCCCNc1ccc([N+](=O)[O-])cc1S(=O)(=O)N(C)C` [Compound 13, N,N-Dimethyl-5-nitro-2-(octylamino)benzenesulfonamide], at NKCC1, the “Inhibition 10 μM Cl- influx (%)” value is given as “Inactive” and the “Inhibition 100 μM Cl- influx (%)” value is “Inactive”.
Regarding `CN(C)S(=O)(=O)c1cc([N+](=O)[O-])ccc1NCCC(C)(C)C` [Compound 14, 2-(3,3-Dimethylbutylamino)-N,N-dimethyl-5-nitro-benzenesulfonamide], on NKCC1, the inhibition at 10 µM was 10 ± 4.9% and the inhibition at 100 µM was 17 ± 11.9%.
As for `CCCCNc1ccc(C(=O)O)cc1S(N)(=O)=O` [Compound 15, 4-(Butylamino)-3-sulfamoyl-benzoic Acid], at NKCC1, the “Inhibition 10 μM Cl- influx (%)” value is on record as “Inactive” and the inhibition at 100 µM came out at 6.4 ± 5.3%.
The like results for `CC(C)(C)CCNc1ccc(C(=O)O)cc1S(N)(=O)=O` [Compound 18, 4-(3,3-Dimethylbutylamino)-3-sulfamoyl-benzoic Acid] were, in that order, “Inactive” and 5.1 ± 4.9%.
On to `CCCCNc1ccc(C(=O)O)cc1S(=O)(=O)NC` [Compound 19, 4-(Butylamino)-3-(-N-methylsulfamoyl)benzoic Acid], for which, on NKCC1, the inhibition at 10 µM was found to be 6.4 ± 2.1% and the inhibition at 100 µM was determined as 6.2 ± 5.7%.
As to `CNS(=O)(=O)c1cc(C(=O)O)ccc1NCCC(C)(C)C` [Compound 22, 4-(-N-3,3-Dimethylbutylamino)-3-(methylsulfamoyl)benzoic Acid], at NKCC1, the “Inhibition 10 μM Cl- influx (%)” value is recorded as “Inactive” and the inhibition at 100 µM turned out to be 2.6 ± 3.5%.
Regarding `CCCCNc1ccc(C(=O)O)cc1S(=O)(=O)N(C)C` [Compound 23, 4-(Butylamino)-3-(-N,N-dimethylsulfamoyl)benzoic Acid], on NKCC1, the inhibition at 10 µM is 2.6 ± 2.8% and the inhibition at 100 µM is 15.6 ± 5.4%.
Turning to `COCCCCCCNc1ccc(C(=O)O)cc1S(=O)(=O)N(C)C` [Compound 31, 3-(-N,N-Dimethylsulfamoyl)-4-(6-methoxyhexylamino)benzoic Acid], the solubility at 24 h in series [2] is greater than 250 µM. On NKCC1, the “Inhibition 10 μM Cl- influx (%)” value was “did not show any NKCC1 inhibition; also recorded: Inactive” and the “Inhibition 100 μM Cl- influx (%)” value was “did not show any NKCC1 inhibition; also recorded: Inactive”.

These data come from paper PMC8311653, “Design, Synthesis, In Vitro and In Vivo Characterization of Selective NKCC1 Inhibitors for the Treatment of Core Symptoms in Down Syndrome” (Journal of Medicinal Chemistry, 2021).
